Columns and labels:
[1] = oral administration; cited from earlier work
[2] = Rabbit study: plasma levels of fluoxetine and norfluoxetine after single oral vs. intravaginal dose
Procedure: (§1) A study was designed to compare the pharmacokinetic profiles of oral vs. intravaginal administration of fluoxetine in white albino female New Zealand rabbits. The study compared the blood levels of fluoxetine and/or its metabolites in the rabbits after either a single oral dose or a single intravaginal dose of fluoxetine hydrochloride. Both oral (tablet) and intravaginal (transvaginal insert) administration delivered the standard human daily dose of 20 mg fluoxetine hydrochloride to each rabbit. The oral route was used to compare the bioavailability of fluoxetine by the two routes of administration.
(§2) Three rabbits received the fluoxetine tablets orally, while three rabbits received fluoxetine inserts intravaginally. The fluoxetine tablets were administered orally using an animal pilling device. The fluoxetine inserts were administered by insertion into the vaginas of the rabbits. The inserts remained in place for 2–4 hours, after which they were removed. Removal was accomplished by using an appropriate instrument to grasp the extension on the back of the insert. If an insert was expelled from an animal before removal, it was noted but not replaced. Both tablets and intravaginal inserts were administered once on Day 0.
Blood samples were obtained for the determination of plasma concentrations of fluoxetine. Starting on Day 0, blood samples were obtained for toxicokinetic determinations from all animals pretest and at 1, 3, 8, 12, 16, 24, 36, 48, 72, 96, 120, 144, 168, 240, 360, 480, 672 and 840 hours post-dose. Pre-dose samples were collected one week prior to dosing. Approximately 1.5 mL of whole blood was obtained from the medial auricular artery of the unanesthetized rabbits, unfasted, and were preserved using ethylenediamine tetraacetic acid (EDTA). […]
The EDTA preserved rabbit plasma samples were analyzed for fluoxetine and norfluoxetine using a solid phase extraction (SPE) technique. […]
Samples were evaluated using a solid phase extraction technique using conditioned SPE cartridges, then analyzed via HPLC and mass spectroscopy. […]

[3] = rabbit
Procedure: as §1, §2
The animals were observed twice daily for mortality and general condition. Animals in poor health were identified and further monitored. In addition, observations were made for any signs of toxic or pharmacologic effects (e.g., abnormalities in general, appearance, activity, behavior, respiration, etc.).

[4] = rabbit, cited from earlier work

Row | SMILES | half life [1] [h] | mean plasma levels of metabolite norfluoxetine, intravaginal delivery compared to oral delivery ([2]; after fluoxetine single 20 mg dose) | mean norfluoxetine levels, persistence ([2]; oral group) | fluoxetine plasma levels after 72 hours ([2]; in vivo, po) | decreased food consumption ([3]; in vivo, po) | differences in clinical observations or body weights between administration methods ([3]; in vivo, po) | mortality ([3]; oral tablet and intravaginal insert groups, length of the study) | tolerability of repeated daily doses ([4]; in vivo) | mortality with repeated daily doses ([4]; up to 7.5 mg/kg/day)
1 | NCCC(Oc1ccc(C(F)(F)F)cc1)c1ccccc1 (stereo not shown) [norfluoxetine] | 170 to 220 | much lower | present throughout most of the study | – | – | – | – | – | –
2 | CNCCC(Oc1ccc(C(F)(F)F)cc1)c1ccccc1 (racemic) [fluoxetine, dl-N-methyl-γ-[4-(trifluoromethyl)phenoxy]benzenepropanamine] | 48 to 72 | – | – | almost undetectable | One animal from each treatment group | no differences | No mortality | fairly well tolerated | not associated with mortality
